In ChEMBL document CHEMBL5620395, “Development and therapeutic potential of allosteric retinoic acid receptor-related orphan receptor γt (RORγt) inverse agonists for autoimmune diseases” (Eur J Med Chem, 2023):

Molecular target: T1, Nuclear receptor ROR-gamma (Homo sapiens, UniProt P51449)
T1 sequence (P51449 whole entry): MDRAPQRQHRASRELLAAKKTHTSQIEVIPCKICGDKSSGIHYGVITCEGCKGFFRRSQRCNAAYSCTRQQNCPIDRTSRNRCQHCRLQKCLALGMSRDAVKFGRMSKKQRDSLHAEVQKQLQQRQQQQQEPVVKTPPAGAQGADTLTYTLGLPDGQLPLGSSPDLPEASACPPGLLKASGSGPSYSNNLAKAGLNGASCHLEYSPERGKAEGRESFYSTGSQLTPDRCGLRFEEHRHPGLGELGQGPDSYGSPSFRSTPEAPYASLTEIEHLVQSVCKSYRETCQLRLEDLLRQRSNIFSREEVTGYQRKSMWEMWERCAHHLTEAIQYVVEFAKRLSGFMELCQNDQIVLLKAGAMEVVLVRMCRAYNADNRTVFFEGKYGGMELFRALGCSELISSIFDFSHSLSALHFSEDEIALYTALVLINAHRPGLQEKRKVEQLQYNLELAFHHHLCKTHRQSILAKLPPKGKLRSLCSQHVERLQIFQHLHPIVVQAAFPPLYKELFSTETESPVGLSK
Assay: Inhibition of RORgamma (unknown origin) incubated for 1 hr by TR-FRET method
Conditions: not given
Molecule `Cc1cc2c(s1)c(-c1ccc(C(=O)O)cc1F)nn2C(=O)c1c(Cl)cccc1Cl` has an IC50 of less than 50 nM. In the case of `Cc1cc2c(s1)c(-c1ccc(C(=O)O)cc1F)nn2C(=O)c1c(F)cccc1C(F)(F)F`, the IC50 is reported as less than 50 nM. With `CN(C)C(=O)c1cc2c(s1)c(-c1ccc(C(=O)O)cc1F)nn2C(=O)c1c(F)cccc1C(F)(F)F` the IC50 was less than 50 nM. Molecule `Cc1cc2c(s1)c(-c1ccc(C(=O)O)cc1)nn2C(=O)c1c(Cl)cccc1C(F)(F)F` has an IC50 of less than 50 nM. Work on `Cc1cc2c(s1)c(-c1ccc(C(=O)O)cc1)nn2C(=O)c1c(Cl)cccc1Br` yielded an IC50 of less than 50 nM. Work on `Cc1cc2c(s1)c(-c1ccc(C(=O)O)cc1F)nn2C(=O)c1c(Cl)cccc1C(F)(F)F` yielded an IC50 of less than 50 nM. `Cc1cc2c(s1)c(-c1ccc(C(=O)O)c(F)c1)nn2C(=O)c1c(F)cccc1C(F)(F)F` showed an IC50 of less than 50 nM. `Cc1cc2c(s1)c(-c1ccc(C(=O)O)cc1)nn2C(=O)c1c(C)cccc1Cl` showed an IC50 of less than 50 nM.

Tested on: not listed separately
Assay: Inhibition of IL-17a mRNA level in […] at 10 uM incubated for 24 hrs by RT-PCR analysis
Assay type: functional, cell-based
Conditions: el4
Work on `C[C@H](CCC(=O)NCCOCCOCCOCCOCCOCCOCCOCCOCCOCCOCCOCCOCCOCCOCCOCCNC(=O)c1ccc2c(-c3ccc(C(=O)O)cc3)nn(C(=O)c3c(Cl)cccc3C(F)(F)F)c2c1)[C@H]1CC[C@H]2[C@@H]3CC=C4C[C@@H](O)CC[C@]4(C)[C@H]3CC[C@]12C` yielded an IC50 of 110 nM.

Molecular target: T2, Peroxisome proliferator-activated receptor gamma (Homo sapiens, UniProt P37231)
T2 sequence (P37231 whole entry): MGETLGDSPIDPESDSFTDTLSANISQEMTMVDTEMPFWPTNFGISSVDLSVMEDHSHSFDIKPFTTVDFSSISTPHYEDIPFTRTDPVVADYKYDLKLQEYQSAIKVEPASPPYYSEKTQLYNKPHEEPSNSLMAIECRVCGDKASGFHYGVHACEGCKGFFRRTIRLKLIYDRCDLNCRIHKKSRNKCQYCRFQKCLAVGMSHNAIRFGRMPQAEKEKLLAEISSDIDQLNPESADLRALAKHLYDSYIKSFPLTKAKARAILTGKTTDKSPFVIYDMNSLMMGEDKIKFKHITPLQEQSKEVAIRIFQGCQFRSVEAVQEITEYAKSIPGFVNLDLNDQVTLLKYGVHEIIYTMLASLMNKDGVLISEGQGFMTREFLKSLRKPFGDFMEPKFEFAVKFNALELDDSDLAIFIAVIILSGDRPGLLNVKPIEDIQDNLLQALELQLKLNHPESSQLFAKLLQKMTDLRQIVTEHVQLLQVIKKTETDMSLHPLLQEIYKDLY
Assay: Inverse agonist activity at human his 6 tagged PPARgammaLBD incubated for 60 mins by TR-FRET assay
Conditions: not given
With `C[C@H](CCC(=O)NCCOCCOCCOCCOCCOCCOCCOCCOCCOCCOCCOCCOCCOCCOCCOCCNC(=O)c1ccc2c(-c3ccc(C(=O)O)cc3)nn(C(=O)c3c(Cl)cccc3C(F)(F)F)c2c1)[C@H]1CC[C@H]2[C@@H]3CC=C4C[C@@H](O)CC[C@]4(C)[C@H]3CC[C@]12C` the IC50 was greater than 100000 nM.
